In ChEMBL document CHEMBL1137552, “Modifications of the chemical structure of terpenes in antiplasmodial and antifungal drug research” (Bioorg Med Chem Lett, 2007):
In brackets after ≈: the same amount, converted by molar mass.

Tests used:
[1] = tested on: Candida albicans; assay: Antifungal activity against Candida albicans ATCC 90028 after 24 hrs; assay type: functional; conditions: ATCC 90028, 24 h
[2] = tested on: Plasmodium falciparum; assay: Antiplasmodial activity after 48 hrs against chloroquine-resistant Plasmodium falciparum FcM29-Cameroon by [3H]hypoxanthine uptake; assay type: functional, organism-based
[3] = tested on: Candida albicans; assay: Antifungal activity against Candida albicans ATCC 90028 after 48 hrs; assay type: functional; conditions: ATCC 90028, 48 h

Row | Compound | MIC [1] [µg/mL] | IC50 [2] [µM] | MIC [3] [µg/mL]
1 | C#CCO[C@@H]1C[C@H](C)CC[C@H]1C(=C)C | > 200 | 31 | > 200
2 | C=CC1=C(C)[C@@H]2CC[C@@H](C)C[C@H]2OC1 | > 200 | > 100 | > 200
3 | CC(C)=CCCC(C)CCO (stereo not drawn) [CITRONELLOL] | > 200 | 192 | > 200
4 | C[C@@H]1CC[C@H]2[C@@H](C)C(=O)O[C@@H]3O[C@@]4(C)CC[C@@H]1[C@]32OO4 [ARTEMISININ] | > 200 | 0.007 | > 200
5 | CC1CC(=O)O[C@@H]2C[C@H](C)CC[C@@H]12 (stereo partly drawn) | > 200 | 470 | > 200
6 | C=C(C)[C@H]1CC=C(C)CC1 [D-LIMONENE] | > 200 | 66 | > 200
7 | C=C(C)[C@@H]1CC=C(CO)CC1 [PERILLYL ALCOHOL] | > 200 | 184 | > 200
8 | C#CCO[C@@](C)(C=C)CCC=C(C)C | > 200 | 39 | > 200
9 | C=CC(C)(O)CCC=C(C)C (stereo not drawn) [LINALOOL] | > 200 | 519 | > 200
10 | Nc1nc(=O)[nH]cc1F [FLUCYTOSINE] | – | – | 0.75 (≈ 5.81 µM)
11 | CC(C)=CCC/C(C)=C/CO [GERANIOL] | > 200 | 52 | > 200
12 | C=C(C)[C@@H]1CC[C@@H](C)C[C@H]1O [ISOPULEGOL] | > 200 | 282 | > 200
13 | CC(C)=CCC[C@@]1(C)OCC2=CC(=O)CC21 (stereo partly drawn) | > 200 | 1.8 | > 200
14 | C#CCOCC1=CC[C@@H](C(=C)C)CC1 | > 200 | 33 | > 200
15 | C=C(C)[C@H]1CCC23COC=CC2C3C1 (stereo partly drawn) | > 200 | > 100 | > 200
16 | CCN(CC)CCCC(C)Nc1ccnc2cc(Cl)ccc12 (stereo not drawn) [CHLOROQUINE] | > 200 | – | > 200
17 | C#CCOC/C=C(\C)CCC=C(C)C | > 200 | 122 | > 200
